# Assay results from US12292445B2, “Methods of selecting subjects for treatment with metabolomic modulators” (priority 2018, dated 2025).
# How the values were obtained:
# [1] = tested on: SPF Swiss Webster mice; test: 6-Hz psychomotor seizure assay; format: in vivo; conditions: SPF mice fed CD, oral gavage 13.3 mg/kg every 12 hours for 3 days, vs vehicle
# Procedure: The 6-Hz test was conducted as previously described. […] All subsequent experimental cohorts contained male mice. One drop (˜50 ul) of 0.5% tetracaine hydrochloride ophthalmic solution was applied to the corneas of each mouse 10-15 min before stimulation. Corneal electrodes were coated with a thin layer of electrode gel (Parker Signagel). A constant-current current device (ECT Unit 57800, Ugo Basile) was used to deliver current at 3 sec duration, 0.2 ms pulse-width and 6 pulses/s frequency. CC50 (the intensity of current required to elicit seizures in 50% of the experimental group) was measured as a metric for seizure susceptibility. […] Locomotor behavior was recorded using Ethovision XT software (Noldus) and quantitative measures for falling, tail dorsiflexion (Straub tail), forelimb clonus, eye/vibrissae twitching and behavioral remission were scored manually. […] Latency to exploration (time elapsed from when an experimental mouse is released into the observation cage (after corneal stimulation) to its first lateral movement) was scored using Ethovision and manually with an electronic timer. […] Seizure threshold (CC50) was determined as previously described, using the average log interval of current steps per experimental group, where sample n is defined as the subset of animals displaying the less frequent seizure behavior. […]
# [2] = tested on: Kcnal−/− mice; test: Kcnal seizure recordings (EEG); format: in vivo, mouse; conditions: CD-fed SPF Kcnal−/− mice, oral gavage 13.3 mg/kg every 12 hours
# Procedure: EEGs were recorded from male and female Kcnal^−/− mice at 6-7 weeks of age. Kcnal^+/+ littermates were used as controls. There were no significant differences observed between males and females in seizure frequency and duration. Data presented include both sexes. Mice were anesthetized with isoflurane (5% induction, 2% maintenance) and eye ointment applied to each eye. Fur was removed along the head, and the area was cleaned with three alternative scrubs of chlorohexidine and 70% isopropanol. In a biosafety cabinet, mice were positioned in a stereotaxic apparatus (Harvard Biosciences) and 1 mg/kg lidocaine +1 mg/kg bupivacaine was applied locally along the incision site. […]
# During EEG recordings, animals were freely moving and maintained on experimental diet. […] Simultaneous video recordings of behavioral seizures were correlated with EEG recordings and scored based on an adapted Racine scale and defined by 5 stages: 1) myoclonic jerk, 2) head stereotypy and facial clonus, 3) bilateral and alternating forelimb/hindlimb clonus, 4) rearing and falling, and 5) generalized tonic-clonic episodes. Data were analyzed by a blinded researcher using Neuroscore CNS Software (DSI). EEG signals were filtered using a 10 Hz high pass filter, and seizure events were detected by blinded manual scoring. […]
# [3] = tested on: gamma-glutamyltranspeptidase (GGT); test: GGT activity assay, fecal samples exposed to GGsTop; format: biochemical, mouse; conditions: all fecal samples (SPF CD, SPF KD, AkkPb KD, AkkPb CD), 500 uM GGsTop
# Procedure: GGT activity was measured as previously described. For anaerobic cultures, bacteria were seeded at 3×10^5 cfu/ml in CD- and KD-based media. 1 ml bacterial suspension was pelleted and frozen at −80° C. for 1 hr. Separate aliquots of the same suspension were plated in BHI mucin agar media or RCM and incubated at 37° C. in a Coy anaerobic chamber for later data normalization by bacterial cfu. Pellets were then resuspended in 250 ul lysis buffer (50 mM Tris-HCl with 1 ug/ml lysozyme) and incubated on ice for 30 min. For fecal samples, one pellet was weighed and homogenized in 1 ml lysis buffer. Bacterial and fecal suspensions were then sonicated (QSonica 125) and centrifuged at 12000×g for 10 min at 4° C. 20 ul supernatant was mixed with 180 ul substrate buffer (2.9 mM L-gamma-glutamyl-3-carboxy-4-nitroanilide (Gold Bio), 100 mM of glycylglycine (Sigma Aldrich), 100 mM Tris-HCl), and 500 uM GGsTop (if noted). Absorbance at 405 nm denoting production of 3-carboxy-4-nitroaniline was measured every minute for 1 hr at 37° C. using an automated multimode plate reader (Biotek Synergy H1).
# [4] = tested on: gamma-glutamyltranspeptidase (GGT); test: GGT activity assay in cultured P. merdae; format: biochemical, Parabacteroides merdae; conditions: conventionally-cultured P. merdae, 500 uM GGsTop vs vehicle
# Procedure: (§1) Cross-feeding was measured as previously described. A. muciniphila was embedded at 2×10^6 cfu/ml in 5 ml pre-reduced CD or KD-based liquid media supplemented with 1% agar at the bottom of an anaerobic tube, and P. merdae was overlaid above it at 6×10^6 cfu/ml in 5 ml pre-reduced M9 minimal media. Diet-based media were generated by aseptically suspending mouse KD vs. CD diets, described above, to 2 kcal/ml in M9 media. Pilot experiments confirmed no ectopic translocation of embedded A. muciniphila from the agar compartment into the above M9 liquid compartment. For each time point, aliquots were taken from the top and bottom compartments, plated in a dilution series in rich media (RCM for P. merdae and BHI +0.05% mucins for A. muciniphila), and colonies were counted. For GGsTop pre-treatment experiments, P. merdae was incubated with 500 uM GGsTop vs vehicle in RCM media at 37° C. for 2 hours and then washed with sterile media.
# GGT activity was measured as previously described. For anaerobic cultures, bacteria were seeded at 3×10^5 cfu/ml in CD- and KD-based media. 1 ml bacterial suspension was pelleted and frozen at −80° C. for 1 hr. […] Absorbance at 405 nm denoting production of 3-carboxy-4-nitroaniline was measured every minute for 1 hr at 37° C. using an automated multimode plate reader (Biotek Synergy H1).
# [5] = tested on: A. muciniphila; test: Cross-feeding in vitro assay, A. muciniphila growth; format: cell-based, Akkermansia muciniphila; conditions: A. muciniphila in CD agar exposed to P. merdae pre-treated with 500 uM GGsTop vs vehicle, 24 hours
# Procedure: as §1
# [6] = tested on: P. merdae; test: Cross-feeding in vitro assay, P. merdae viability after GGsTop pre-treatment; format: cell-based, Parabacteroides merdae; conditions: 500 uM GGsTop pre-treatment, 2 hours, 37° C., pilot experiments
# Procedure: as §1
structure (smiles),measurement,setting,value
"COP(=O)(CCC(N)C(=O)O)Oc1cccc(CC(=O)O)c1 (stereo not drawn) [GGsTop, 3-[[(3-amino-3-carboxypropyl)methoxyphosphinyl]oxy]benzeneacetic acid]",6-Hz seizure threshold (CC50),[1],increases in seizure thresholds toward levels seen in SPF KD mice
same,seizures per day (EEG),[2],significant decrease in seizures per day
same,fecal GGT activity signal,[3],eliminated the detected signals
same,GGT activity in P. merdae,[4],ablated
same,A. muciniphila growth,[5],increased growth
same,P. merdae viability,[6],no significant effect
